Here are results for 1 substance from article PMC6358866 (International Journal of Molecular Sciences, 2019).

For experiment [1], the system named is Staphylococus aureus ATCC 6538 biofilm. Put plainly: Activity against biofilms on 96-well plates after withdrawal of the antimicrobial (additional 24 h in MHB II). Type of experiment: cell-based, Staphylococcus aureus. As to conditions: after withdrawal and additional 24 h in MHB II. Here is the method: (§1) Bacterial strains were obtained from the Polish Collection of Microorganisms (Polish Academy of Science, Wroclaw, Poland). Three Gram-positive and two Gram-negative strains linked with CL-related infections were chosen for the study (Staphylococus aureus ATCC 6538, Staphylococcus epidermidis ATCC 14990, Pseudomonas aeruginosa ATCC 9027, Escherichia coli ATCC 25922, and Enterococcus faecalis ATCC 29212). The bacteria were cultured in a Mueller Hinton Broth II (MHB, Biocorp, Warsaw, Poland) overnight, under aerobic conditions at 37 °C. […] Bacterial suspensions were added to 96-well plates (Kartell, Noviglio, Italy) at initial inoculums of ca. 5 × 10^8 CFU/mL and incubated under aerobic conditions with shaking (120 rpm) at 37 °C for 24 h. […] After exposure, the wells were washed three times with PBS and a solution of resazurin (Sigma Aldrich, St. […] This cell viability reagent is metabolized by bacterial dehydrogenases upon contact with living cells. As a result, the blue dye is reduced to a pink resorufin. After 1.5 h of incubation, the absorbance was measured at 570 and 600 nm using a microplate reader (Thermo Fisher Scientific, Waltham, MA, USA). […] The procedure was conducted as described in Section 4.3, with the difference that after exposure to antimicrobials, the wells were washed three times with PBS and pure MHB II was added. The samples were incubated for another 24 h (aerobic conditions, 120 rpm shaking, 37 °C). […] The absorbance was measured at the same wave lengths and metabolic activity was calculated according to the formula given in Section 4.3. The presented results are means of nine results obtained on three different days.

The subject of experiment [2] is Enterococcus faecalis ATCC 29212 biofilm. The description is as above. Type of experiment: cell-based. The conditions noted are these: after withdrawal and additional 24 h in MHB II; for concentration permanently eradicating the biofilm: EF biofilm on polystyrene. Here is the method:
as §1

In experiment [3] the test system is Escherichia coli ATCC 25922 biofilm. The experiment is described as above. Type of experiment: cell-based. As to conditions: after withdrawal and additional 24 h in MHB II. Here is the method: as §1
Experiment [4] deals with Pseudomonas aeruginosa ATCC 9027 biofilm. The experiment is described as above. As to conditions: lowest concentration giving permanent reduction of metabolic activity by at least 50 ± 5%; after withdrawal and additional 24 h in MHB II. Type of experiment: cell-based. Here is the method: as §1
Experiment [5] has as its system Staphylococcus epidermidis ATCC 14990 biofilm. The experiment is described as above. Type of experiment: cell-based. The conditions noted are these: after withdrawal and additional 24 h in MHB II. Here is the method:
as §1

Experiment [6] concerns Enterococcus faecalis ATCC 29212 biofilm on CLs. As to the kind of experiment: Activity of lipopeptide and CL liquids against biofilms formed on contact lenses. Type of experiment: cell-based. As to conditions: EF biofilm on CLs, lipopeptide in PBS, 24 h, resazurin. Here is the method: (§2) Bacterial strains were obtained from the Polish Collection of Microorganisms (Polish Academy of Science, Wroclaw, Poland). Three Gram-positive and two Gram-negative strains linked with CL-related infections were chosen for the study (Staphylococus aureus ATCC 6538, Staphylococcus epidermidis ATCC 14990, Pseudomonas aeruginosa ATCC 9027, Escherichia coli ATCC 25922, and Enterococcus faecalis ATCC 29212). The bacteria were cultured in a Mueller Hinton Broth II (MHB, Biocorp, Warsaw, Poland) overnight, under aerobic conditions at 37 °C. After incubation, the liquid cultures were centrifuged (2500 rpm for 10 min) and washed with phosphoric buffer (PBS, AppliChem, Darmstadt, Germany) three times and resuspended in fresh MHB II for inoculums appropriate for the performed assays.
(§3) Bacterial biofilms were cultured on commercially available CLs (1-Day Acuvue Moist, containing Etafilcon A, obtained from Johnson and Johnson Vision Care, Jacksonsville, FL, USA). The CLs were placed in polystyrene 24-well plates (Orange Scientific, Braine-l’Alleud, Belgium) in bacterial suspensions in MHB II at initial inoculums of ca. 5 × 10^8 CFU/mL. After 24 h of incubation (aerobic conditions, 120 rpm shaking, 37 °C), all of the CLs were rinsed three times with PBS. […] After incubation, resazurin was added (final concentration per sample = 0.01%) and absorbance was measured as in the assays 4.3 and 4.4. Positive controls contained CLs with bacterial biofilms placed in pure PBS, while sterile CLs incubated in MHB II replaced with PBS served as negative controls. The experiments were performed in triplicate on three different days.
For orientation: The colour change of resazurin is a common sign of viable cells or microbes.

Experiment [7] deals with Escherichia coli ATCC 25922 biofilm on CLs. The description is as above. Type of experiment: cell-based. As to conditions: EC biofilm on CLs, lipopeptide in PBS, 24 h, resazurin. Here is the method: as §2, §3
Experiment [8] concerns Pseudomonas aeruginosa ATCC 9027 biofilm on CLs. Described as above. As to conditions: PA biofilm on CLs, lipopeptide in PBS, 24 h, resazurin. Type of experiment: cell-based. Here is the method:
as §2, §3

Experiment [9] has as its system Staphylococcus epidermidis ATCC 14990 biofilm on CLs. The experiment is described as above. Type of experiment: cell-based. The conditions noted are these: SE biofilm on CLs, lipopeptide in PBS, 24 h, resazurin. Here is the method:
as §2, §3

The test system of experiment [10] is Staphylococus aureus ATCC 6538 biofilm on CLs. Put plainly: Lipopeptide, lens liquids and combinations against biofilms on CLs after withdrawal of the antimicrobial solution. As to conditions: SA biofilm on CLs, lipopeptide in PBS, after withdrawal and 24 h in MHB II. Type of experiment: cell-based, Staphylococcus aureus. Here is the method: as §2
Bacterial biofilms were cultured on commercially available CLs (1-Day Acuvue Moist, containing Etafilcon A, obtained from Johnson and Johnson Vision Care, Jacksonsville, FL, USA). […] After incubation, resazurin was added (final concentration per sample = 0.01%) and absorbance was measured as in the assays 4.3 and 4.4. […]
The assay was also performed for the samples where biofilms on CLs were exposed to pure CL solutions. […] The results were read, calculated, and presented as in the previously-described sections.

The mark [11] stands for this setting: lowest concentration giving permanent reduction of metabolic activity by at least 50 ± 5%.
[12] abbreviates: lowest concentration giving permanent reduction of metabolic activity by at least 90 ± 5%.

On to (C10)2-KKKK-NH2 [Lipopeptide], for which the “concentration permanently eliminating living bacterial cells” value in [1] (SA biofilm on polystyrene) turned out to be 32 mg/L. The “MBEC II 50” value in [1] (setting [11]) worked out at 16 mg/L; in [2] (setting [11]), 32 mg/L; in [3] (setting [11]), 64 mg/L; in [4], 64 mg/L; in [5] (setting [11]), 16 mg/L. Moreover, the “MBEC II 90” value in experiment [1] (setting [12]) is 32 mg/L; in experiment [2] (setting [12]), 32 mg/L; in [3] (setting [12]), 64 mg/L; in [5] (setting [12]), 16 mg/L. Moreover, the “concentration permanently eradicating the biofilm” value in [2] (listed as (C10)2-KKKK-NH2) was 32 mg/L; in experiment [2] (listed as lipopeptide), 32 to 256 mg/L. In addition, in experiment [5] (SE biofilm on polystyrene), the “concentration giving a permanent antibiofilm effect” value came out at 16 mg/L. Also, the “concentration reducing metabolic activity of bacteria by at least 90%” value in experiment [6] and in [9] was 8 mg/L each time. The “concentration reducing metabolic activity by more than 90%” value in [7] and in [8] was 32 mg/L in each case. In experiment [10], the “concentration permanently removing biofilm from CLs” value amounted to 16 mg/L.
